From patent US6399542B1, “Alkoxyimino-substituted bicyclic compounds compositions containing the same and method of making such compounds” (Agro-Kanesho Co., Ltd., priority 1997, dated 2002)
Values joined by “and” are separate entries in the source; they are usually repeats but may differ in a detail not shown here. Equal entries are not always repeated. Where two headings read alike, the source gives them in different places.

Columns and labels:
Format in all cases: in vivo
Puccinia recondita = experiment: Effect on Wheat brown rust (preventive spray test); conditions: 7 days after inoculation
[1] = test system: Psecidoperonospora cubensis; experiment: Effect on Cucumber downy mildew (preventive spray test); conditions: 7 days after inoculation
Erysiphe graminis = experiment: Effects on Barley powdery mildew (preventive spray test); conditions: lesions counted seven days after inoculation
Phytophthora infestans = conditions: Tomato late blight, 5 days after inoculation
[2] = conc. of active ingredient 20 ppm
[3] = conc. of active ingredient 100 ppm
[4] = conc. of active ingredient 4 ppm

Structure (SMILES) | Preventive rate (%) (Puccinia recondita; [2]) | Preventive rate (%) (Puccinia recondita; [3]) | Preventive rate (%) [1, 2] [%] | Preventive rate (%) [1, 3] [%] | Preventive rate (%) (Erysiphe graminis; [2]) | Preventive rate (%) (Erysiphe graminis; [3]) | Preventive rate (%) [1, 4] [%] | Preventive rate (%) (Phytophthora infestans; [2]) | Preventive rate (%) (Phytophthora infestans; [3]) | Preventive rate (%) (Puccinia recondita; [4]) | Preventive rate (%) (Erysiphe graminis; [4]) | Preventive rate (%) (Phytophthora infestans; [4])
CNC(=O)C(OC)c1ccccc1COc1ccc2c(c1)OCCC2=NOC (racemic) [c-11] | 93 | 99 | – | – | – | – | – | – | – | – | – | –
CCc1cc2c(cc1OCc1ccccc1/C(=N\OC)C(=O)OC)OCC2=NOC (single isomer, unassigned) [a-29] | – | – | 97 | 97 | – | – | – | – | – | – | – | –
CCc1cc2c(cc1OCc1ccccc1/C(=N\OC)C(=O)NC)OCC2=NOC (single isomer, unassigned) [a-31] | – | – | – | – | 99 | 100 | – | – | – | – | – | –
CON=C(C(=O)OC)c1ccccc1COc1cc2c(cc1C)C(=NOC)C(C)C2 (single isomer, unassigned) [f-9] | – | – | 100 | 100 | – | – | 100 | 93% | 98 | – | – | –
CCc1cc2c(cc1OCc1ccccc1/C(=N\OC)C(=O)NC)OCC2=NOC [a-32] | – | – | 81 | 97 | – | – | – | 98% | 91 | – | – | –
CO/N=C(/C(=O)OC)c1ccccc1COc1ccc2c(c1C)OCC2=NOCC#N [a-48] | 100 | 100 | 100 | 100 | – | – | – | 81% | 94 | 100 | – | –
CNC(=O)/C(=N/OC)c1ccccc1COc1ccc2c(c1C)OCC2=NOCC#N [a-49] | 100 | 100 | 100 | 100 | – | – | 88 | 97% | 97 | 100 | – | –
CNC(=O)/C(=N/OC)c1ccccc1COc1ccc2c(c1C)OCC2=NOCC(=O)OC [a-54] | 100 | 100 | – | – | – | – | – | – | – | 100 | – | –
C=C(Cl)CON=C1COc2c1ccc(OCc1ccccc1/C(=N\OC)C(=O)NC)c2C [a-64] | 100 | 100 | 100 | 100 | 98 | 100 | 100 | 84% | 100 | 100 | 94 | –
C/C=C/CON=C1COc2c1ccc(OCc1ccccc1/C(=N\OC)C(=O)NC)c2C [a-65] | 100 | 100 | 94 | 100 | – | – | – | 97% | 100 | – | – | –
CO/N=C(/C(=O)OC)c1ccccc1COc1ccc2c(c1C)OCC2=NOCC=C(C)C [a-66] | 100 | 100 | – | – | – | – | – | – | – | 100 | – | –
CNC(=O)/C(=N/OC)c1ccccc1COc1ccc2c(c1C)OCC2=NOCC=C(C)C [a-67] | 100 | 100 | 100 | 100 | – | – | – | 88% | 100 | 100 | – | –
CO/N=C(/C(=O)OC)c1ccccc1COc1ccc2c(c1C)OCC2=NOCc1ccccc1 [a-72] | 100 | 100 | – | – | – | – | – | – | – | – | – | –
CNC(=O)/C(=N/OC)c1ccccc1COc1ccc2c(c1C)OCC2=NOCc1ccccc1 [a-73] | 100 | 100 | 88 | 88 | 100 | 100 | – | – | – | 100 | 98 | –
CO/N=C(/C(=O)OC)c1ccccc1COc1ccc2c(c1C)OCC2=NOCc1ccc(Cl)c(Cl)c1 [a-78] | 100 | 100 | – | – | – | – | – | – | – | 95 | – | –
CNC(=O)/C(=N/OC)c1ccccc1COc1ccc2c(c1C)OCC2=NOCc1ccc(Cl)c(Cl)c1 [a-79] | 98 | 100 | – | – | – | – | – | – | – | 98 | – | –
CO/C=C(/C(=O)OC)c1ccccc1COc1ccc2c(c1)OCCC2=NOC [c-2] | 100 | 100 | 97 | 100 | 100 | 100 | – | 98% | 98 | 93 | – | 84
CON=C1CCOc2cc(OCc3ccccc3N(OC)C(=O)OC)ccc21 [c-7] | 99 | 100 | 94 | 100 | – | – | – | – | – | – | – | –
CON=C(C(=O)OC)c1ccccc1COc1cc2c(cc1C)C(=NOC)CCO2 [c-26] | 98 | 99 | 100 | 100 | – | – | – | – | – | – | – | –
CCc1c(OCc2ccccc2C(=NOC)C(=O)OC)ccc2c1OCCC2=NOC [c-29] | 100 | 100 | – | – | 95 | 99 | – | – | – | 96 | – | –

Structure (SMILES) | Preventive rate (%) (Puccinia recondita; [2]) | Preventive rate (%) (Puccinia recondita; [3]) | Preventive rate (%) [1, 2] [%] | Preventive rate (%) [1, 3] [%] | Preventive rate (%) (Erysiphe graminis; [2]) | Preventive rate (%) (Erysiphe graminis; [3]) | Preventive rate (%) [1, 4] [%] | Preventive rate (%) (Phytophthora infestans; [2]) | Preventive rate (%) (Phytophthora infestans; [3]) | Preventive rate (%) (Puccinia recondita; [4]) | Preventive rate (%) (Erysiphe graminis; [4]) | Preventive rate (%) (Phytophthora infestans; [4])
CCCCON=C1CCOc2c1ccc(OCc1ccccc1C(=NOC)C(=O)NC)c2C [c-43] | 93 | – | – | – | – | – | – | – | – | – | – | –
CON=C(C(=O)OC)c1ccccc1COc1ccc2c(c1C)OCCC2=NOCC#N [c-48] | 100 | 100 | – | – | – | – | – | – | – | 100 | – | –
CNC(=O)C(=NOC)c1ccccc1COc1ccc2c(c1C)OCCC2=NOCC#N [c-49] | 93 | 94 | – | – | – | – | – | – | – | 91 | – | –
CON=C(C(=O)OC)c1ccccc1COc1ccc2c(c1C)OCCC2=NOC(C)(C)C [c-52] | 93 | 100 | – | – | – | – | – | – | – | – | – | –
CCCCON=C1CCOc2c1ccc(OCc1ccccc1C(=NOC)C(=O)NC)c2C [c-58] | 100 | 100 | – | – | 98 | 100 | – | – | 100 | 98 | – | –
CON=C(C(=O)OC)c1ccccc1COc1ccc2c(c1C)OCCC2=NOCC=CCl [c-61] | 100 | 100 | – | – | – | – | – | – | – | 99 | – | –
CNC(=O)C(=NOC)c1ccccc1COc1ccc2c(c1C)OCCC2=NOCC=CCl [c-62] | 100 | 100 | – | – | 100 | 100 | – | 100% | 100 | 100 | 96 | –
CON=C(C(=O)OC)c1ccccc1COc1ccc2c(c1)OCCC2=NOCC=CCl [c-63] | 99 | 100 | – | – | – | – | – | – | – | – | – | –
CNC(=O)C(=NOC)c1ccccc1COc1ccc2c(c1C)OCCC2=NOCC=C(C)C [c-67] | 100 | 100 | – | – | 100 | 100 | – | – | – | 100 | – | –
CON=C(C(=O)OC)c1ccccc1COc1ccc2c(c1C)OCCC2=NOCc1ccc(Cl)c(Cl)c1 [c-78] | 96 | 100 | – | – | – | – | – | – | – | – | – | –
CNC(=O)C(=NOC)c1ccccc1COc1ccc2c(c1C)OCCC2=NOCc1ccc(Cl)c(Cl)c1 [c-79] | 100 | 100 | – | – | 100 | 100 | – | – | – | 97 | – | –
CON=C(C(=O)OC)c1ccccc1COc1ccc2c(c1C)OCCC2=NOCc1cccc(F)c1 [c-80] | 98 | 100 | – | – | – | – | – | – | – | – | – | –
CNC(=O)C(=NOC)c1ccccc1COc1ccc2c(c1C)OCCC2=NOCc1cccc(F)c1 [c-81] | 99 | 100 | – | – | 98 | 98 | – | – | – | 98 | – | –
CON=C(C(=O)OC)c1ccccc1COc1ccc2c(c1C)OCCC2=NOCc1c(F)c(F)c(F)c(F)c1F [c-82] | 96 | 100 | – | – | 86 | 100 | – | – | – | – | – | –
CNC(=O)C(=NOC)c1ccccc1COc1ccc2c(c1C)OCCC2=NOCc1cccc2ccccc12 [c-89] | 100 | 100 | – | – | 92 | 98 | – | – | – | 96 | – | –
CON=C1CCc2cc(OCc3ccccc3C(=NOC)C(=O)OC)ccc21 [e-4] | 98 | – | – | – | – | – | – | – | – | – | – | –
CON=C(C(=O)OC)c1ccccc1COc1ccc2c(c1C)CCC2=NOC [e-15] | 98 | 99 | 95 | 100 | – | – | – | – | – | – | – | –
CON=C(C(=O)OC)c1ccccc1COc1ccc2c(c1C)CCC2=NOCC=CCl [e-57] | – | – | 94 | 100 | – | – | – | – | – | – | – | –
CNC(=O)C(=NOC)c1ccccc1COc1ccc2c(c1)CCC2=NOCC=CCl [e-58] | 100 | 100 | 100 | 100 | 100 | 100 | 100 | 92% and 98% | 100 | – | – | –
C#CCON=C1CCc2c1ccc(OCc1ccccc1C(=NOC)C(=O)OC)c2C [e-60] | – | – | 88 | 100 | – | – | – | – | – | – | – | –
